Source: US12516056B2, “Compounds for inhibition of janus kinase 1” (MANKIND PHARMA LTD., priority 2019, dated 2026)
Where a name gives a salt, the structure may show the parent alone. Read-outs that look alike come from different tables or passages of the source.

Key:
[1] = target: T1, Recombinant JAK1 (Homo sapiens, UniProt P23458); assay: JAK biochemical assay (LANCE Ultra TR-FRET), JAK1; details: recombinant JAK1, TR-FRET; read-out: Biochemical Assay (μM) JAK1
T1 construct: purchased Carna Biosciences
T1 sequence (P23458 whole entry): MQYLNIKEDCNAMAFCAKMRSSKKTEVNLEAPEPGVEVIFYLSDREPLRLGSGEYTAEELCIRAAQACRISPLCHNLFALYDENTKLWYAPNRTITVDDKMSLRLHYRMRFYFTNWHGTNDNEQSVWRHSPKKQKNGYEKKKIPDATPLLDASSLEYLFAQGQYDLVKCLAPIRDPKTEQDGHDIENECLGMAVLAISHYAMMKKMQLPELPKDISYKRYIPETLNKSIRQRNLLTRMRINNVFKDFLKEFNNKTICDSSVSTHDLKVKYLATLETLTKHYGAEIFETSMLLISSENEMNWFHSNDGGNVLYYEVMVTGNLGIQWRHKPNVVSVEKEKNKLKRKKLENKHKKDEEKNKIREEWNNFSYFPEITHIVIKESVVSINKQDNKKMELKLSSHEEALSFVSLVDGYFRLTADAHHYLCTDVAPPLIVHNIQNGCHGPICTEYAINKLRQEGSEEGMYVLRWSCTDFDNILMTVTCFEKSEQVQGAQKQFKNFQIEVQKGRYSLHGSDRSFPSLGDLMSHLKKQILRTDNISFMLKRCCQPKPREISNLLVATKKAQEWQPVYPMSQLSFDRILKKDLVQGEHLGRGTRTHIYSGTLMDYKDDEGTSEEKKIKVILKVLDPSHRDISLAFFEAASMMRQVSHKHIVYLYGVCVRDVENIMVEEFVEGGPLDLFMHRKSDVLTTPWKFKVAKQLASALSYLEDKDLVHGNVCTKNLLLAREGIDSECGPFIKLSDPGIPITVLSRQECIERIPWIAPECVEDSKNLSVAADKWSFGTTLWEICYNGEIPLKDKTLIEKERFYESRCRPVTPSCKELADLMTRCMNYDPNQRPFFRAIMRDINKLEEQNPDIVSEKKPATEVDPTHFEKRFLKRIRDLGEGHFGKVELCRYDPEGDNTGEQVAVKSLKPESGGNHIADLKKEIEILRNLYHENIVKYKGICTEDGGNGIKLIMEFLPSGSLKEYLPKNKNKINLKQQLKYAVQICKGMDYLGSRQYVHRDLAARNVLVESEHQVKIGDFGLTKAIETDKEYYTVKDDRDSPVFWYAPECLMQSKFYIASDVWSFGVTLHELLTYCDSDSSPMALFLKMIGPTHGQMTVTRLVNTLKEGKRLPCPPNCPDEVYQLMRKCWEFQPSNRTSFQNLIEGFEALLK
In short: (§1)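 Kinase reactions ran in buffer of 50 mM HEPES pH 7.5 with 1 mM EGTA, 10 mM MgCl2, 2 mM DTT and 0.01% Tween-20, using recombinant enzyme. Phosphorylated ULight substrate was detected by TR-FRET, and compound effect expressed as % inhibition against vehicle.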

[2] = test system: STAT3 phosphorylation by IL-6 in TF-1 cells; assay: JAK cellular assay: STAT3 phosphorylation by IL-6 in TF-1 cells (HTRF); type: cell-based; details: IL-6 30 ng/ml, pSTAT3 HTRF, read-out: Cell Based Assay (μM) TF-1/IL-6/pSTAT3
In short: (§2)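 Phospho-STAT3 (IL-6, 30 ng/ml) and phospho-STAT5 (GMCSF, 5 ng/ml) read by HTRF in lysates after 20 min cytokine exposure, minus unstimulated-cell background. Cells were serum-starved overnight, plated at 120,000/well, given compound 30 min at 37 °C beforehand; DMSO 0.2% final.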

[3] = target: T2, Recombinant TYK2 (Homo sapiens, UniProt P29597); assay: JAK biochemical assay (LANCE Ultra TR-FRET), TYK2; details: recombinant TYK2, TR-FRET; read-out: Biochemical Assay (μM) TYK2
T2 construct: purchased Carna Biosciences
T2 sequence (P29597 whole entry): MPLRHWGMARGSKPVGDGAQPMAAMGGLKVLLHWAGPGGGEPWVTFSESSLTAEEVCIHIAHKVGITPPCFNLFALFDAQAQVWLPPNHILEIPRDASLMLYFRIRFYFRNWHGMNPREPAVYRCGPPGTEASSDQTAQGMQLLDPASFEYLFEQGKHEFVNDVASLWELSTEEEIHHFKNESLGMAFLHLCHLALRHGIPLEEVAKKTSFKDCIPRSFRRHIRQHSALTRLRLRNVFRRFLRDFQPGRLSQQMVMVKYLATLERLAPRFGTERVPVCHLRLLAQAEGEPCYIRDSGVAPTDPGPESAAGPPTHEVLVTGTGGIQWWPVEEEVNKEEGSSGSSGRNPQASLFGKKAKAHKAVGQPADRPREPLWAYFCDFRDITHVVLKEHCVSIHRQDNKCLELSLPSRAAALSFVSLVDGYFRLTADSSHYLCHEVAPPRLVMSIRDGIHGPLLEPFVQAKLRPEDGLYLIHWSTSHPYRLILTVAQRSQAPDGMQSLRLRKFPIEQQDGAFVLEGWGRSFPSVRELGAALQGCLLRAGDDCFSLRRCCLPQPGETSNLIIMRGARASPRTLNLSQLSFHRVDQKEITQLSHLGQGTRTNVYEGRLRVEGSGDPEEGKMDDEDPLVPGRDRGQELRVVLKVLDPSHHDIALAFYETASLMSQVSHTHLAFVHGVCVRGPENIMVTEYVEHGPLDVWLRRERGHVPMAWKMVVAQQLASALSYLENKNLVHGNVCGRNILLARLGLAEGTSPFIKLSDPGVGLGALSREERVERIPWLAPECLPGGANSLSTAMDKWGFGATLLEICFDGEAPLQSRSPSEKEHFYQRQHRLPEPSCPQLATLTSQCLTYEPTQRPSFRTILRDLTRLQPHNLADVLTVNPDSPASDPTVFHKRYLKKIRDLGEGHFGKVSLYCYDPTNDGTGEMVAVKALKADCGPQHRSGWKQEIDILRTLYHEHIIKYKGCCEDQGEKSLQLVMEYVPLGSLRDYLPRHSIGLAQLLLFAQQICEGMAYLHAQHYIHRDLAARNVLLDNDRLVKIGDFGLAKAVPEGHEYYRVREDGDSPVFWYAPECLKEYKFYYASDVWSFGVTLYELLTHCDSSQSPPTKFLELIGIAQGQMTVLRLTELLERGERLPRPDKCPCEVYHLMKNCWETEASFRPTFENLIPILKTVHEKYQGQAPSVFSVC
In short: as §1

[4] = target: T3, Recombinant JAK3 (Homo sapiens, UniProt P52333); assay: JAK biochemical assay (LANCE Ultra TR-FRET), JAK3; details: recombinant JAK3, TR-FRET; read-out: Biochemical Assay (μM) JAK3
T3 construct: purchased Carna Biosciences
T3 sequence (P52333 1-1124): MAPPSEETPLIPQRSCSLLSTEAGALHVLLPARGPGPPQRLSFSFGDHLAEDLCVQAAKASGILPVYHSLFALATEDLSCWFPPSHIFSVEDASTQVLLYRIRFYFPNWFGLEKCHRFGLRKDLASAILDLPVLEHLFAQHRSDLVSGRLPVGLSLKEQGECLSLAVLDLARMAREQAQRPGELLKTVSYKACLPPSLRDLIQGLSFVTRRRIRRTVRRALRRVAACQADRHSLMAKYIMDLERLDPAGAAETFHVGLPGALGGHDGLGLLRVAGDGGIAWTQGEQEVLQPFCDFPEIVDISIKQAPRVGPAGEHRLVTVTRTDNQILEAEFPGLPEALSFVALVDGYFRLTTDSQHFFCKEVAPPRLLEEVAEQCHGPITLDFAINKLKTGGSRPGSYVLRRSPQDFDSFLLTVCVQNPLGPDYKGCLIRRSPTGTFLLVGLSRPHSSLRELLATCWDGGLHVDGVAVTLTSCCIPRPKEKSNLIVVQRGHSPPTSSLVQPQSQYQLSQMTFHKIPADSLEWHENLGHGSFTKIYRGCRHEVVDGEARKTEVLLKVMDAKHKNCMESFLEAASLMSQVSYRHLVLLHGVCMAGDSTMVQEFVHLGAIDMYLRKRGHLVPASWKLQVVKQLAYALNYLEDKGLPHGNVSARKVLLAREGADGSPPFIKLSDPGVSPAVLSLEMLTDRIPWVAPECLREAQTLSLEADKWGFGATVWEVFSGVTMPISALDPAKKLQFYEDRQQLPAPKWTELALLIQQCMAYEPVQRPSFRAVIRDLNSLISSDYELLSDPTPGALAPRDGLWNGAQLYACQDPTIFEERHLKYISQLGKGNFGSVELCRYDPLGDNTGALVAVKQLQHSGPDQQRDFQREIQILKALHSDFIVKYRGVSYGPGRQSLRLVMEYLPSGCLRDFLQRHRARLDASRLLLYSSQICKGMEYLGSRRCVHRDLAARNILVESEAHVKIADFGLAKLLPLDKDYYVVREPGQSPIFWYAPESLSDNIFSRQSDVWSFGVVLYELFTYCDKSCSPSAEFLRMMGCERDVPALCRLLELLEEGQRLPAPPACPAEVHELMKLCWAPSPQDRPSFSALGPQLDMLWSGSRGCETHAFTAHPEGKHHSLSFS
In short: as §1

[5] = test system: STAT5 phosphorylation by GMCSF in TF-1 cells; assay: JAK cellular assay: STAT5 phosphorylation by GMCSF in TF-1 cells (HTRF); type: cell-based; details: Homo sapiens; TF-1 cells, GMCSF 5 ng/ml, pSTAT5 HTRF; read-out: Cell Based Assay (μM) TF-1/GMCSF/pSTAT5
In short: as §2

[6] = target: T4, Recombinant JAK2 (Homo sapiens, UniProt O60674); assay: JAK biochemical assay (LANCE Ultra TR-FRET), JAK2; details: recombinant JAK2, TR-FRET; read-out: Biochemical Assay (μM) JAK2
T4 construct: purchased Carna Biosciences
T4 sequence (O60674 whole entry): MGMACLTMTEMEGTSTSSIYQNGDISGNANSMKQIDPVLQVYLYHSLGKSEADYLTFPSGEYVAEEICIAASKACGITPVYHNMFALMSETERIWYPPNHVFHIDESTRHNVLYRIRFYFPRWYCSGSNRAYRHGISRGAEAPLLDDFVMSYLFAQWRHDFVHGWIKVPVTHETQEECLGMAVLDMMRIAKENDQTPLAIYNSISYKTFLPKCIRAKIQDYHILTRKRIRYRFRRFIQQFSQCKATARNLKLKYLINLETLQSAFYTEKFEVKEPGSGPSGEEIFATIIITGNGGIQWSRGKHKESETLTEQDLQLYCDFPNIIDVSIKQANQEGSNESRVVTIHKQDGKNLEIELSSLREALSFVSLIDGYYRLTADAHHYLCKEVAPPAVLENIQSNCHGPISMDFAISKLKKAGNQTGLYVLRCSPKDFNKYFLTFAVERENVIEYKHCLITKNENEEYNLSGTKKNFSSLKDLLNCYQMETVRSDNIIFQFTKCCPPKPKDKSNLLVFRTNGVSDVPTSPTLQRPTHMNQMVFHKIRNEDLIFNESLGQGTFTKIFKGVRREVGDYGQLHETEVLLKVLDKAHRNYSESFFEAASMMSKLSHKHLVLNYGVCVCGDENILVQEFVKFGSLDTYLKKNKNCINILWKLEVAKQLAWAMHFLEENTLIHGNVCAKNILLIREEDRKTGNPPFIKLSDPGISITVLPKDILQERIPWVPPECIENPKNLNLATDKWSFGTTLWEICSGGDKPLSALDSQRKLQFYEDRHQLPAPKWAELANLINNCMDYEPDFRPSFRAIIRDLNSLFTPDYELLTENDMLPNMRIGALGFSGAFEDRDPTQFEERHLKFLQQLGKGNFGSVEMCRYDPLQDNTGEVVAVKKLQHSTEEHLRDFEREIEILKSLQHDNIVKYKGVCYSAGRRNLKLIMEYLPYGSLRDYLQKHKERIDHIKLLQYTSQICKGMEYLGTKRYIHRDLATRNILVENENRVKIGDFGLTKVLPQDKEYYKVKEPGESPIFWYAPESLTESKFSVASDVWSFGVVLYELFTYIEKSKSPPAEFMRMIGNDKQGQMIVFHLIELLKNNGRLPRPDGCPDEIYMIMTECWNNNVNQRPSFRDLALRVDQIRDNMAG
In short: as §1

[7] = test system: STAT5 phosphorylation by IL-2 in HT-2 cells; assay: STAT5 phosphorylation by IL-2 in HT-2 cells (HTRF); type: cell-based; details: IL-2 50 U/ml, pSTAT5 HTRF, read-out: Cell Based Assay (μM) HT-2/IL-2/pSTAT5
In short: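 Readout is HTRF detection of phospho-STAT5 in lysates, corrected for signal from unstimulated cells. Before lysis, HT-2 cells starved in 10% FBS medium received compound for 30 min (0.2% DMSO final, 37 °C), followed by 50 U/ml recombinant human IL-2 for 20 min.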

Compound	IC50 [1]	IC50 ([2]; Homo sapiens, TF-1, TF-1 cells)	IC50 [3]	IC50 [4]	IC50 [5]	IC50 [6]	IC50 ([7]; HT2, HT-2 cells)	IC50 ([2]; TF-1 cells)	IC50 ([7]; HT-2 cells)
N#CCCC(O)(c1ccc(-n2cc(-c3ccnc4[nH]cnc34)cn2)nc1)C(F)(F)F (stereo not drawn) [Example 1227, 4-(6-(4-(3H-imidazo[4,5-b]pyridin-7-yl)-1H-pyrazol-1-yl)pyridin-3-yl)-5,5,5-trifluoro-4-hydroxypentanenitrile]	< 0.1 µM	> 0.1 µM	> 0.1 µM	< 0.1 µM	> 0.75 µM	< 0.1 µM	> 0.5 µM	–	–
O=C(NCCC(c1ccc(-n2cc(-c3ccnc4[nH]cnc34)cn2)nc1)C(F)(F)F)C1CCCC1 (stereo not drawn) [Example 1151, N-(3-(6-(4-(3H-imidazo[4,5-b]pyridin-7-yl)-1H-pyrazol-1-yl)pyridin-3-yl)-4,4,4-trifluorobutyl)cyclopentanecarboxamide]	< 0.1 µM	> 0.5 µM	> 1 µM	> 0.1 µM	> 1 µM	> 0.1 µM	> 1 µM	–	–
FC(F)(F)[C@@H](c1ccc(-n2cc(-c3ccnc4[nH]cnc34)cn2)nc1)C1COC1 (single isomer, unassigned) [Example 1184]	< 0.1 µM	> 0.8 µM	> 1 µM	< 0.1 µM	> 1 µM	> 0.1 µM	1.5 µM	–	–
N#CCNC(=O)n1cc(-c2ccnc3[nH]c(=O)[nH]c23)cn1 [Example 1027, N-(cyanomethyl)-4-(2,3-dihydro-2-oxo-1H-imidazo[4,5-b]pyridin-7-yl)-1H-pyrazole-1-carboxamide]	0.028 µM	> 10 µM	0.096 µM	0.146 µM	> 10 µM	0.044 µM	> 10 µM	–	–
OC(c1ccc(-n2cc(-c3ccnc4[nH]cnc34)cn2)nc1)(C1CC1)C(F)(F)F (stereo not drawn) [Example 1126, 1-(6-(4-(3H-imidazo[4,5-b]pyridin-7-yl)-1H-pyrazol-1-yl)pyridin-3-yl)-1-cyclopropyl-2,2,2-trifluoroethanol]	0.003 µM	0.34 µM	> 1 µM	0.007 µM	> 1 µM	0.036 µM	< 1 µM	–	–
CS(=O)(=O)NCc1ccc(-n2cc(-c3ccnc4[nH]cnc34)cn2)nc1 [Example 1090, N-((6-(4-(3H-imidazo[4,5-b]pyridin-7-yl)-1H-pyrazol-1-yl)pyridin-3-yl)methyl)methanesulfonamide]	0.053 µM	> 1 µM	> 1 µM	0.12 µM	> 10 µM	0.3 µM	> 1 µM	–	–
CNCCC(c1ccc(-n2cc(-c3ccnc4[nH]cnc34)cn2)nc1)C(F)(F)F (stereo not drawn) [Example 1198, 3-(6-(4-(3H-imidazo[4,5-b]pyridin-7-yl)-1H-pyrazol-1-yl)pyridin-3-yl)-4,4,4-trifluoro-N-methylbutan-1-amine]	< 0.1 µM	–	> 0.5 µM	< 0.1 µM	1 µM	< 0.1 µM	–	0.1 µM	0.6 µM
CC(C)NCCC(c1ccc(-n2cc(-c3ccnc4[nH]cnc34)cn2)nc1)C(F)(F)F (stereo not drawn) [Example 1203, 3-(6-(4-(3H-imidazo[4,5-b]pyridin-7-yl)-1H-pyrazol-1-yl)pyridin-3-yl)-4,4,4-trifluoro-N-isopropylbutan-1-amine]	< 0.1 µM	> 0.1 µM	> 0.5 µM	< 0.1 µM	> 1 µM	< 0.1 µM	> 0.5 µM	–	–
CCC(c1ccc(-n2cc(-c3ccnc4[nH]cnc34)cn2)nc1)C(F)(F)F (stereo not drawn) [Example 1122, 7-(1-(5-(1,1,1-trifluorobutan-2-yl)pyridin-2-yl)-1H-pyrazol-4-yl)-3H-imidazo[4,5-b]pyridine]	> 0.1 µM	> 1 µM	> 1 µM	> 0.5 µM	> 1 µM	> 0.5 µM	> 1 µM	–	–
O=C(CCC(c1ccc(-n2cc(-c3ccnc4[nH]cnc34)cn2)nc1)C(F)(F)F)NC1CC1 (stereo not drawn) [Example 1150, 4-(6-(4-(3H-imidazo[4,5-b]pyridin-7-yl)-1H-pyrazol-1-yl)pyridin-3-yl)-N-cyclopropyl-5,5,5-trifluoropentanamide]	< 0.1 µM	> 0.5 µM	> 1 µM	< 0.1 µM	> 1 µM	< 0.1 µM	> 1 µM	–	–
CC(C)NCCOC(c1ccc(-n2cc(-c3ccnc4[nH]cnc34)cn2)nc1)C(F)(F)F (stereo not drawn) [Example 1241, N-(2-(1-(6-(4-(3H-imidazo[4,5-b]pyridin-7-yl)-1H-pyrazol-1-yl)pyridin-3-yl)-2,2,2-trifluoroethoxy)ethyl)propan-2-amine, TFA salt]	< 0.1 µM	> 0.5 µM	> 1 µM	< 0.1 µM	> 1 µM	> 0.1 µM	> 0.75 µM	–	–
O[C@@](c1ccc(-n2cc(-c3ccnc4[nH]cnc34)cn2)nc1)(C1CCN(C2COC2)C1)C(F)(F)F (stereo partly drawn) [Example 1242, (R)-1-(6-(4-(3H-imidazo[4,5-b]pyridin-7-yl)-1H-pyrazol-1-yl)pyridin-3-yl)-2,2,2-trifluoro-1-(1-(oxetan-3-yl)pyrrolidin-3-yl)ethanol]	< 0.1 µM	> 1 µM	> 1 µM	< 0.1 µM	> 1 µM	< 0.1 µM	> 1 µM	–	–
O=C(NCCC(c1ccc(-n2cc(-c3ccnc4[nH]cnc34)cn2)nc1)C(F)(F)F)NC1CC1 (stereo not drawn) [Example 1179, 1-(3-(6-(4-(3H-imidazo[4,5-b]pyridin-7-yl)-1H-Pyrazol-1-yl)pyridin-3-yl)-4,4,4-trifluorobutyl)-3-cyclopropylurea]	< 0.1 µM	> 1 µM	> 1 µM	< 0.1 µM	> 1 µM	< 0.1 µM	> 1 µM	–	–
CS(=O)(=O)CCC(c1ccc(-n2cc(-c3ccnc4[nH]cnc34)cn2)nc1)C(F)(F)F (stereo not drawn) [Example 1174, 7-(1-(5-(1,1,1-trifluoro-4-(methylsulfonyl)butan-2-yl)pyridin-2-yl)-1H-pyrazol-4-yl)-3H-imidazo[4,5-b]pyridine]	0.018 µM	0.3 µM	> 1 µM	0.055 µM	> 10 µM	0.108 µM	1.3 µM	–	–
FC(F)(F)C(CCNC1CC1)c1ccc(-n2cc(-c3ccnc4[nH]cnc34)cn2)nc1 (stereo not drawn) [Example 1153, N-(3-(6-(4-(3H-imidazo[4,5-b]pyridin-7-yl)-1H-pyrazol-1-yl)pyridin-3-yl)-4,4,4-trifluorobutyl)cyclopropanamine]	< 0.1 µM	0.36 µM	> 0.5 µM	< 0.1 µM	> 1 µM	< 0.1 µM	2.1 µM	–	–
